Reference: ChEMBL document CHEMBL1139468, “Virtual screening of novel CB2 ligands using a comparative model of the human cannabinoid CB2 receptor” (J Med Chem, 2005)
Activity calls are given as the source filed them. The calls are words filed in the database; no cut-off is given here.

Assays:
Cannabinoid receptor 2 = Cannabinoid receptor 2 (Homo sapiens, UniProt P34972); assay: Agonist activity at human CB2 receptor transfected in CHO cells by [35]GTPgamma binding assay; type: cell-based
[1] = molecular target: Cannabinoid receptor 1 (Rattus norvegicus) (UniProt P20272); assay: Activity at CB1 receptor in rat cerebellar membrane by [35]GTPgamma binding assay; type: functional, cell membranes; settings: Cerebellum
[2] = Inhibition of methionine gamma-lyase
[3] = molecular target: T1, Fatty-acid amide hydrolase 1 (Homo sapiens) (UniProt O00519); assay: Inhibition of FAAH
T1 sequence (whole entry): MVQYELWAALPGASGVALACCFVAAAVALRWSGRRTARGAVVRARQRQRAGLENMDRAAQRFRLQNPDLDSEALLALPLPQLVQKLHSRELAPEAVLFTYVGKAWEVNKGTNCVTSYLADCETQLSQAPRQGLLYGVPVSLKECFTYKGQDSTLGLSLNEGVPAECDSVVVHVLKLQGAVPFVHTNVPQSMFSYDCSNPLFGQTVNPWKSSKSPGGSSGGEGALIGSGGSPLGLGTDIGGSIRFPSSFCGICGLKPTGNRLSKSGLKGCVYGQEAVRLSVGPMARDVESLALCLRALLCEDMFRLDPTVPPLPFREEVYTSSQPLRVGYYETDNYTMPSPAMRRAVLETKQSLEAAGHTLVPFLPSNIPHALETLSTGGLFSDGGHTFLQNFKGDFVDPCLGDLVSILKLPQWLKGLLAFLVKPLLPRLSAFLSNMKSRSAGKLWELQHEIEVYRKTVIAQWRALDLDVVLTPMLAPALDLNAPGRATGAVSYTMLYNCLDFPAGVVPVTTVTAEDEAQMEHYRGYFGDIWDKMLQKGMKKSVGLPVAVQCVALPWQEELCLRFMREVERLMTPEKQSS

Sequence of Cannabinoid receptor 2 (P34972 whole entry): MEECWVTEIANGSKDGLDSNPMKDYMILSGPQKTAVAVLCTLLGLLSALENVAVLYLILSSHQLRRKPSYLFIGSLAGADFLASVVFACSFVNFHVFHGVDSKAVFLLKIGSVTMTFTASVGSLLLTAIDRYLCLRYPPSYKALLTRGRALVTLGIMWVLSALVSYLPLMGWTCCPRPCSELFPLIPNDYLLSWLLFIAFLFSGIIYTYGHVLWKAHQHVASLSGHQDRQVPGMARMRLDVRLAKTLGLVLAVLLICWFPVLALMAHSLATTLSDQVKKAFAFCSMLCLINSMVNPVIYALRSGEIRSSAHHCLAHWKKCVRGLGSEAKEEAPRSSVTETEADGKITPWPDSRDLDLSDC
Sequence of Cannabinoid receptor 1 (Rattus norvegicus) (P20272 whole entry): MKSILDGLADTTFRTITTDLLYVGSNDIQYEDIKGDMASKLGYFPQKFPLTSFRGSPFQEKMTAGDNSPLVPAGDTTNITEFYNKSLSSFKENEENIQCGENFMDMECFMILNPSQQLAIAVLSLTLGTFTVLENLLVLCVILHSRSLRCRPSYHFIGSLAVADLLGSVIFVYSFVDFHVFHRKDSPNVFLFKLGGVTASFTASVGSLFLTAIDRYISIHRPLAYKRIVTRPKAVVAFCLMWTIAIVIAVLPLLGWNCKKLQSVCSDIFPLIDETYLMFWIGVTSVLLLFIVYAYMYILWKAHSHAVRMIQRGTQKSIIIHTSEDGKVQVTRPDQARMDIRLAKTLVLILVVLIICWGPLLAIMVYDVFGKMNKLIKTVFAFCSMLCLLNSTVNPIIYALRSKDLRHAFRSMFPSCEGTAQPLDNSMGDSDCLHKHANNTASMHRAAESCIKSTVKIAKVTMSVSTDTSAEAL

| Compound | Emax (Cannabinoid receptor 2) [%] | Activity [1] | Activity [2] | Activity [3] | EC50 (Cannabinoid receptor 2) [µM] |
| --- | --- | --- | --- | --- | --- |
| CCCCCCC(C)(C)c1cc(O)c2c(c1)OC(C)(C)[C@H]1CC=C(CO)C[C@H]21 | 103 | – | – | – | – |
| O=C(c1cccc(C(F)(F)F)c1)c1nccc2ccccc12 | 53 | inactive | inactive | inactive | 5.01 |
